# Like-named read-outs stand apart in the source and are kept apart here.
# How the values were obtained:
# [1] = test system: S. aureus ATCC25923; experiment: MIC determination by microplate dilution, S. aureus human strain; assay type: cell-based, Staphylococcus aureus; conditions: Mueller-Hinton medium, 24 h, 37° C.; for MIC: Staphylococcus aureus, ATCC25923, Gram-positive
# How it was run: (§1)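 In Mueller-Hinton broth, strains seeded at an OD of 0.01 are exposed to two-fold dilutions of compound (stock 5 mg/mL in DMSO/methanol) for 24 h at 37 °C. Growth is then measured by absorbance at 620 nm.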
# [2] = test system: S. aureus (340); experiment: MIC determination by microplate dilution, S. aureus animal strain; assay type: cell-based, Staphylococcus aureus; conditions: Gram-positive, Mueller-Hinton medium, 24 h, 37° C.; for MIC: Staphylococcus aureus
# How it was run: as §1
# [3] = test system: S. intermedius (1051997); experiment: MIC determination by microplate dilution, S. intermedius animal strain; assay type: cell-based, Staphylococcus intermedius; conditions: Gram-positive, Mueller-Hinton medium, 24 h, 37° C.; for MIC: Staphylococcus intermedius
# How it was run: as §1
# [4] = test system: E. faecalis ATCC29212; experiment: MIC determination by microplate dilution, E. faecalis human strain; assay type: cell-based, Enterococcus faecalis; conditions: Mueller-Hinton medium, 24 h, 37° C.; for MIC: Enterococcus faecalis, ATCC29212, Gram-positive
# How it was run: as §1
# [5] = test system: E. coli ATCC28922; experiment: MIC determination by microplate dilution, E. coli human strain; assay type: cell-based, Escherichia coli; conditions: Mueller-Hinton medium, 24 h, 37° C.; for MIC: Escherichia coli, ATCC28922, Gram-negative
# How it was run: as §1
# [6] = test system: E. coli (1956); experiment: MIC determination by microplate dilution, E. coli animal strain; assay type: cell-based, Escherichia coli; conditions: Gram-negative, Mueller-Hinton medium, 24 h, 37° C.; for MIC: Escherichia coli
# How it was run: as §1
# [7] = test system: P. aeruginosa ATCC27853; experiment: MIC determination by microplate dilution, P. aeruginosa human strain; assay type: cell-based, Pseudomonas aeruginosa; conditions: Mueller-Hinton medium, 24 h, 37° C.; for MIC: Pseudomonas aeruginosa, ATCC27853, Gram-negative
# How it was run: as §1
# [8] = test system: P. aeruginosa (1051575); experiment: MIC determination by microplate dilution, P. aeruginosa animal strain; assay type: cell-based, Pseudomonas aeruginosa; conditions: Gram-negative, Mueller-Hinton medium, 24 h, 37° C.; for MIC: Pseudomonas aeruginosa
# How it was run: as §1
# [9] = test system: CHO-K1 cells; experiment: WST1 cytotoxicity test on CHO-K1 cells; assay type: cell-based, Chinese hamster; conditions: for IC50: Cricetulus griseus
# How it was run: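 CHO-K1 cells seeded 24 h, then exposed to increasing compound concentrations in duplicate for 24 h at 37 °C, 5% CO2. Viability by WST-1 reduction (20 min, 37 °C), absorbance at 450 nm. IC50 = concentration reducing viability by 50%, from nonlinear regression of dose-response.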
# [10] = test system: P. aeruginosa (1051575); experiment: Potentiation of the doxycycline activity at 2 μg/mL; assay type: cell-based, Pseudomonas aeruginosa; conditions: in combination with doxycycline 2 μg/mL; 24 h, 37°
# [11] = test system: C. albicans; experiment: Antifungal activity, cascade microdilution, C. albicans; assay type: cell-based, Candida albicans; conditions: 24 h; for IC50: Candida albicans, read-out: IC50 (μg/mL) C. albicans
# [12] = test system: P. aeruginosa (1051575); experiment: Potentiation of erythromycin activity; assay type: cell-based, Pseudomonas aeruginosa; conditions: concentration of compound required with erythromycin 2 μg/mL
# Protocol: (§2) This method requires the use of a 96-well plate: 100 μL of a liquid culture medium are placed in each well and then seeded with the microbial suspension prepared previously. The required volume to be seeded is calculated for an OD of 0.01, which corresponds to about 5×10^6 bacteria in each well. In this plate, the first line corresponds to a negative control (200 μL of sterile culture medium in each well), the second line corresponds to a positive control (100 μL of sterile culture medium+100 μL of the bacterial suspension), and the third line contains 192 μL of culture medium; 8 μL of compound of formula (I) to be tested are placed in each well. Thereafter, a cascade dilution is performed from this line. μL of a doxycycline solution (1 mg dissolved in 20 mL) are then added to each well of the lines 3 to 8 to obtain a final antibiotic concentration of 2 μg/mL. 92 μL of bacterial suspension are then added to lines 3 to 8. […] After 24 hours of incubation at 37° C., 40 μL of nitro tetrazolium iodide are added to each well to reveal the presence of live bacteria by staining the medium pink.
# The procedure is identical to that indicated in Example 5 above. 8 μL of an antibiotic solution under consideration (1 mg dissolved in 20 mL) are added to obtain a final antibiotic concentration of 2 μg/mL instead of 8 μL of a doxycycline solution.
# (§3) The results are given in table V. They indicate the concentration of compound of formula (I) required to be able to restore the activity of the antibiotic under consideration.
# [13] = test system: P. aeruginosa (1051575); experiment: Potentiation of chloramphenicol activity; assay type: cell-based, Pseudomonas aeruginosa; conditions: concentration of compound required with chloramphenicol 2 μg/mL
# Protocol: as §2, with “Thereafter, a cascade dilution is performed from this line. μL of a doxycycline solution (1 mg dissolved in 20 mL) are then added to each well of the lines 3 to 8 to obtain a final antibiotic concentration of 2 μg/mL.” left out
# The procedure is identical to that indicated in Example 5 above. […]
# as §3
# [14] = CHO-K1, 24 h, read-out: IC50 (μg/mL) CHO
# [15] = CHO-K1, read-out: IC50 (μg/mL) CHO
# [16] = compounds as hydrochloride in water, MH medium
compound,measurement,setting,value
"CC(C)OC(=O)CC[C@@H](C)[C@H]1CCC2C3CCC4C[C@@H](NCCCNCCCN)CC[C@]4(C)C3CC[C@@]21C (stereo partly drawn) [(16), isopropyl 3β-norspermidinolithocholate]",MIC,[1],3.5 µg/mL
same,MIC,[2],3.5 µg/mL
same,MIC,[3],7 µg/mL
same,MIC,[4],3.5 µg/mL
same,MIC,[5],14 µg/mL
same,MIC,[6],7 µg/mL
same,MIC,[7],7 µg/mL
same,MIC,[8],3.5 µg/mL
same,IC50,[9]; [14],13 µg/mL
same,IC50,[9]; [15],13 µg/mL
same,MIC - P. aeruginosa (1051575): content of compound of formula (I) to restore the doxycycline activity (at 2 μg/mL),[10],3 µg/mL
same,IC50,[11],2 µg/mL
"COC(=O)CC[C@@H](C)[C@H]1CCC2C3CCC4C[C@@H](NCCNCCNCCNCCN)CC[C@]4(C)C3C[C@H](O)[C@@]21C (stereo partly drawn) [(19), methyl 3β-(tetraethylenepentamine)deoxycholate]",MIC,[1],4 µg/mL
same,MIC,[2],7 µg/mL
same,MIC,[3],7 µg/mL
same,MIC,[4],7 µg/mL
same,MIC,[5],7 µg/mL
same,MIC,[6],29 µg/mL
same,MIC,[7],15 µg/mL
same,MIC,[8],7 µg/mL
same,IC50,[9]; [14],40 µg/mL
same,IC50,[9]; [15],40 µg/mL
same,MIC - P. aeruginosa (1051575): content of compound of formula (I) to restore the doxycycline activity (at 2 μg/mL),[10],4 µg/mL
same,IC50,[11],4 µg/mL
"CC(C)OC(=O)CC[C@@H](C)[C@H]1CCC2C3CCC4C[C@@H](NCCNCCNCCNCCNCCN)CC[C@]4(C)C3CC[C@@]21C (stereo partly drawn) [(26), isopropyl 3β-(pentaethylenehexamine)lithocholate]",MIC,[2],18 µg/mL
same,MIC,[3],8 µg/mL
same,MIC,[6],60 µg/mL
same,MIC,[8],60 µg/mL
same,"MIC P. aeruginosa (1051575), compound + erythromycin",[12],60 µg/mL
same,"MIC P. aeruginosa (1051575), compound + chloramphenicol",[13],8 µg/mL
"CC(C)OC(=O)CC[C@@H](C)[C@H]1CCC2C3CCC4C[C@@H](NCCNCCNCCNCCNCCN)CC[C@]4(C)C3C[C@H](O)[C@@]21C (stereo partly drawn) [(27), isopropyl 3β-(pentaethylenehexamine)deoxycholate]",MIC,[1],16 µg/mL
same,MIC,[2],> 130 µg/mL
same,MIC,[3],16 µg/mL
same,MIC,[4],32 µg/mL
same,MIC,[5],32 µg/mL
same,MIC,[6],65 µg/mL
same,MIC,[7],65 µg/mL
same,MIC,[8],65 µg/mL
same,IC50,[9]; [15],110 µg/mL
same,MIC - P. aeruginosa (1051575): content of compound of formula (I) to restore the doxycycline activity (at 2 μg/mL),[10],8 µg/mL
same,IC50,[11],4 µg/mL
"COC(=O)CC[C@@H](C)[C@H]1CCC2C3CCC4C[C@@H](NCCCN(C)CCCN)CC[C@]4(C)C3C[C@H](O)[C@@]21C (stereo partly drawn) [(31), methyl 3β-(bis(3-aminopropyl)methylamine)deoxycholate]",MIC,[1],7 µg/mL
same,MIC,[2],7 µg/mL
same,MIC,[3],3 µg/mL
same,MIC,[4],13 µg/mL
same,MIC,[5],26 µg/mL
same,MIC,[6],13 µg/mL
same,MIC,[7],26 µg/mL
same,MIC,[8],13 µg/mL
same,IC50,[9]; [14],55 µg/mL
same,IC50,[9]; [15],55 µg/mL
same,MIC - P. aeruginosa (1051575): content of compound of formula (I) to restore the doxycycline activity (at 2 μg/mL),[10],3 µg/mL
same,IC50,[11],2 µg/mL
"COC(=O)CC[C@@H](C)[C@H]1CCC2C3CCC4C[C@@H](NCCCN(CCCN)CCCN)CC[C@]4(C)C3C[C@H](O)[C@@]21C (stereo partly drawn) [(32), methyl 3β-(tris(3-aminopropyl)amine)deoxycholate]",MIC,[1],4 µg/mL
same,MIC,[2],7 µg/mL
same,MIC,[3],7 µg/mL
same,MIC,[4],14 µg/mL
same,MIC,[5],7 µg/mL
same,MIC,[6],30 µg/mL
same,MIC,[7],14 µg/mL
same,MIC,[8],7 µg/mL
same,IC50,[9]; [14],30 µg/mL
same,IC50,[9]; [15],30 µg/mL
same,MIC - P. aeruginosa (1051575): content of compound of formula (I) to restore the doxycycline activity (at 2 μg/mL),[10],4 µg/mL
same,IC50,[11],2 µg/mL
"CC(C)OC(=O)CC[C@@H](C)[C@H]1CCC2C3C(CC[C@@]21C)[C@@]1(C)CC[C@H](NCCN(CCN)CCN)CC1C[C@@H]3O (stereo partly drawn) [(43), isopropyl 3β-(tris(2-aminoethyl)amine)ursodeoxycholate]",MIC,[3],7 µg/mL
same,MIC,[6],56 µg/mL
same,MIC,[8],14 µg/mL
same,"MIC P. aeruginosa (1051575), compound + erythromycin",[12],28 µg/mL
"CC(C)OC(=O)CC[C@@H](C)[C@H]1CCC2C3C(CC[C@@]21C)[C@@]1(C)CC[C@H](NCCCN(C)CCCN)CC1C[C@@H]3O (stereo partly drawn) [(44), isopropyl 3β-(bis(3-aminopropyl)methylamine)ursodeoxycholate]",MIC,[2],28 µg/mL
same,MIC,[3],14 µg/mL
same,MIC,[6],56 µg/mL
same,MIC,[8],28 µg/mL
same,"MIC P. aeruginosa (1051575), compound + erythromycin",[12],55 µg/mL
same,"MIC P. aeruginosa (1051575), compound + chloramphenicol",[13],14 µg/mL
"CC(C)OC(=O)CC[C@@H](C)[C@H]1CCC2C3CCC4C[C@@H](NCCCN(CCCN)CCCN)CC[C@]4(C)C3CC[C@@]21C (stereo partly drawn) [(47), isopropyl 3β-(tris(3-aminopropyl)amine)lithocholate]",MIC,[2],7 µg/mL
same,MIC,[3],4 µg/mL
same,MIC,[6],60 µg/mL
same,MIC,[8],30 µg/mL
same,IC50,"[9]; CHO-K1, CHO (Example 7), read-out: IC50 (μg/mL) CHO",120 µg/mL
same,"MIC P. aeruginosa (1051575), compound + erythromycin",[12],30 µg/mL
same,"MIC P. aeruginosa (1051575), compound + chloramphenicol",[13],4 µg/mL
same,IC50,[11]; [16],2 µg/mL
"CC(C)OC(=O)CC[C@@H](C)[C@H]1CCC2C3CCC4C[C@@H](NCCN(CCN)CCN)CC[C@]4(C)C3CC[C@@]21C (stereo partly drawn) [(48), isopropyl 3β-(tris(2-aminoethyl)amine)lithocholate]",MIC,[3],7 µg/mL
same,"MIC P. aeruginosa (1051575), compound + erythromycin",[12],55 µg/mL
same,"MIC P. aeruginosa (1051575), compound + chloramphenicol",[13],7 µg/mL
"CC(C)OC(=O)CC[C@@H](C)[C@H]1CCC2C3CCC4C[C@@H](NCCCN(C)CCCN)CC[C@]4(C)C3CC[C@@]21C (stereo partly drawn) [(49), isopropyl 3β-(bis(3-aminopropyl)methylamine)lithocholate]",MIC,[2],27 µg/mL
same,MIC,[3],14 µg/mL
same,MIC,[6],27 µg/mL
same,MIC,[8],27 µg/mL
same,"MIC P. aeruginosa (1051575), compound + erythromycin",[12],55 µg/mL
same,"MIC P. aeruginosa (1051575), compound + chloramphenicol",[13],14 µg/mL
methyl 3β-(bis(3-aminopropyl)methylamine)ursodeoxycholate [(53)],MIC S. aureus Human ATCC25923,[1]; Gram-positive,27 µg/mL
same,MIC S. aureus Animal (340),[2],27 µg/mL
same,MIC S. intermedius Animal (1051997),[3],7 µg/mL
same,MIC E. faecalis Human ATCC29212,[4]; Gram-positive,55 µg/mL
same,MIC E. coli Human ATCC28922,[5]; Gram-negative,55 µg/mL
same,MIC E. coli Animal (1956),[6],55 µg/mL
same,MIC P. aeruginosa Human ATCC27853,[7]; Gram-negative,55 µg/mL
same,MIC P. aeruginosa Animal (1051575),[8],55 µg/mL
same,IC50 (μg/mL) CHO,[9]; CHO (Example 7),50 µg/mL
same,IC50 (μg/mL) CHO,"[9]; Table III, WST1, CHO-K1 cells, 24 h, concentration reducing cell viability by 50%",50 µg/mL
same,MIC - P. aeruginosa (1051575): content of compound of formula (I) to restore the doxycycline activity (at 2 μg/mL),[10],7 µg/mL
same,IC50 (μg/mL) C. albicans,[11]; [16],3 µg/mL
